{"source": "ChEMBL document CHEMBL1131022", "about": "“Synthesis and biological activity of a novel methylamine-bridged enkephalin analogue (MABE): a new route to cyclic peptides and peptidomimetics” (J Med Chem, 1998)", "key": {"[1]": {"molecular_target": "Delta-type opioid receptor (Homo sapiens, UniProt P41143)", "sequence (P41143 whole entry)": "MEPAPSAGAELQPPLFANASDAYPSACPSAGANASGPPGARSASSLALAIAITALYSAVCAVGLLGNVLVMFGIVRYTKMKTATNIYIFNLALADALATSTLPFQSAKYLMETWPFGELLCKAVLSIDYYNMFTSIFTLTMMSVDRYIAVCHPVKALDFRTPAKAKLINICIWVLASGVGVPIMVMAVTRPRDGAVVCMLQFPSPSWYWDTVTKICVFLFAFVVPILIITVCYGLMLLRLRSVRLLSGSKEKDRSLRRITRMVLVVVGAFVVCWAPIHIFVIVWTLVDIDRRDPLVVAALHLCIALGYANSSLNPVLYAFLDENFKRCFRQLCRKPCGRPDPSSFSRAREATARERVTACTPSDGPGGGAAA", "experiment": "In vitro potency was measured against human Opioid receptor delta 1"}, "[2]": {"molecular_target": "Kappa-type opioid receptor (Homo sapiens, UniProt P41145)", "sequence (P41145 whole entry)": "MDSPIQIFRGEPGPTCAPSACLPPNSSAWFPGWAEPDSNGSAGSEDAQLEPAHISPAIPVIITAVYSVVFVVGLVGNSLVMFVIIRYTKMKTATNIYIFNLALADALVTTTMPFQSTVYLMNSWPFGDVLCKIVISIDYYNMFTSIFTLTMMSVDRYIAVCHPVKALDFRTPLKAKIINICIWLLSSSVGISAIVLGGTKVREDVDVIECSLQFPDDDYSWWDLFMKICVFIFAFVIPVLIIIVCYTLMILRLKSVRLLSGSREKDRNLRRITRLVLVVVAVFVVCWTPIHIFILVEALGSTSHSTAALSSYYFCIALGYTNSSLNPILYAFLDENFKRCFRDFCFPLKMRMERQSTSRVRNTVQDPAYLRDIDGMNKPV", "experiment": "In vitro potency was measured against human Opioid receptor kappa 1"}, "Rattus norvegicus": {"tested_on": "Rattus norvegicus", "experiment": "In vivo efficacy was measured using thermal escape assay", "format": "functional"}, "Mu-type opioid receptor": {"molecular_target": "Mu-type opioid receptor (Homo sapiens, UniProt P35372)", "sequence (P35372 whole entry)": "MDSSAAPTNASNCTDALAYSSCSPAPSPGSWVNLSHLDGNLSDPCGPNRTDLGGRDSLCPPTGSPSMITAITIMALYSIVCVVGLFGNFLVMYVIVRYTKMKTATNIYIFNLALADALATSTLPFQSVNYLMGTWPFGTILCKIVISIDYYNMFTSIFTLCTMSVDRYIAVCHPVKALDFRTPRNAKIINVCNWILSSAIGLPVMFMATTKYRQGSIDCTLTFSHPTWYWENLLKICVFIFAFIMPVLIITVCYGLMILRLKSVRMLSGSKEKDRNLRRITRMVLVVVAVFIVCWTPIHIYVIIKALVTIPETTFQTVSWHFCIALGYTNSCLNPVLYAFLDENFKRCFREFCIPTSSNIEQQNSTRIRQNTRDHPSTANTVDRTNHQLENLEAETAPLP", "experiment": "In vitro potency was measured against human Opioid receptor mu 1"}}, "data": [{"smiles": "CN1CCNC(=O)[C@H](Cc2ccccc2)NC(=O)CNC(=O)[C@H](NC(=O)[C@@H](N)Cc2ccc(O)cc2)C1", "values": [{"measurement": "Ki", "setting": "[1]", "value": 2.1, "unit": "nM"}, {"measurement": "Ki", "setting": "[2]", "value": 340, "unit": "nM"}, {"measurement": "ED50", "setting": "Rattus norvegicus", "value": 0.027, "unit": "µg"}, {"measurement": "Ki", "setting": "Mu-type opioid receptor", "value": 1.6, "unit": "nM"}]}, {"smiles": "CC1(C)SSC(C)(C)C(NC(=O)[C@@H](N)Cc2ccc(O)cc2)C(=O)NCC(=O)N[C@@H](Cc2ccccc2)C(=O)NC1C(=O)O", "note": "(single isomer, unassigned)", "values": [{"measurement": "ED50", "setting": "Rattus norvegicus", "value": 54, "unit": "µg"}]}, {"smiles": "C[C@@H](NC(=O)[C@@H](N)Cc1ccc(O)cc1)C(=O)NCC(=O)N(C)[C@@H](Cc1ccccc1)C(=O)NCCO", "note": "[DAMGO]", "values": [{"measurement": "ED50", "setting": "Rattus norvegicus", "value": 0.14, "unit": "µg"}]}, {"smiles": "CN1CC[C@]23c4c5ccc(O)c4O[C@H]2[C@@H](O)C=C[C@H]3[C@H]1C5", "note": "[MORPHINE]", "values": [{"measurement": "ED50", "setting": "Rattus norvegicus", "value": 2.4, "unit": "µg"}]}]}
